Laboratory results from paper PMC8922279, “Identification of β-Lactams Active against Mycobacterium tuberculosis by a Consortium of Pharmaceutical Companies and Academic Institutions” (ACS Infectious Diseases, 2022).

Tests used:
Mtb H37Rv [1] = assay: MIC90 against replicating (R) Mtb H37Rv, with or without clavulanate; type: cell-based, Mycobacterium tuberculosis; conditions: Table S4; for Mtb H37Rv R + CLAV (MIC90): clavulanate 4 μg/mL; for Mtb H37Rv R (MIC90): no clavulanate
Mtb H37Rv [2] = assay: MIC90 against nonreplicating (NR, 4-stress) Mtb H37Rv, with or without clavulanate; type: cell-based, Mycobacterium tuberculosis; conditions: 4-stress nonreplicating, Table S4; for Mtb H37Rv NR + CLAV (MIC90): clavulanate 4 μg/mL; for Mtb H37Rv NR (MIC90): no clavulanate
E. coli = assay: Microbial spectrum, E. coli; type: cell-based, Escherichia coli; conditions: clavulanate 4 μg/mL; Table S4
P. aeruginosa = assay: Microbial spectrum, P. aeruginosa; type: cell-based, Pseudomonas aeruginosa; conditions: clavulanate 4 μg/mL; Table S4
S. aureus = assay: Microbial spectrum, S. aureus; type: cell-based, Staphylococcus aureus; conditions: clavulanate 4 μg/mL; Table S4
C. albicans = assay: Microbial spectrum, C. albicans; type: cell-based, Candida albicans; conditions: no clavulanate; Table S4
[3] = In vitro plasma stability, human plasma; conditions: 2 μM, 37 °C, time point 120 min
[4] = In vitro plasma stability, SD rat plasma; conditions: 2 μM, 37 °C, time point 120 min
[5] = Stability in simulated gastric fluid (SGF); conditions: 10 μM, pH 1.2, room temperature
[6] = In vitro plasma stability, CD-1 mouse plasma; conditions: 2 μM, 37 °C, time point 120 min
[7] = In vitro plasma stability, beagle dog plasma; conditions: 2 μM, 37 °C, time point 120 min
Caco-2 cells = assay: Caco-2 permeability / efflux transporter substrate; conditions: for Caco-2 Mean Papp A to B / Caco-2 Mean Papp B to A: 3 μM, pH 7.4, 120 min; for Caco-2 Mean Recovery % A to B / Caco-2 Mean Recovery % B to A / Caco-2 Rank Papp / Caco-2 Efflux Ratio / Efflux Transporter Substrate: Caco-2
[8] = In vitro plasma stability, cynomolgus monkey plasma; conditions: 2 μM, 37 °C, time point 120 min
plasma proteins [9] = assay: Plasma protein binding (equilibrium dialysis), human; conditions: 2 μM
plasma proteins [10] = assay: Plasma protein binding (equilibrium dialysis), SD rat; conditions: 2 μM
[11] = Stability in fasted simulated intestinal fluid (FaSSIF); conditions: 10 μM, pH 6.5, room temperature
plasma proteins [12] = assay: Plasma protein binding (equilibrium dialysis), beagle dog; conditions: 2 μM
plasma proteins [13] = assay: Plasma protein binding (equilibrium dialysis), CD-1 mouse; conditions: 2 μM
plasma proteins [14] = assay: Plasma protein binding (equilibrium dialysis), cynomolgus monkey; conditions: 2 μM

Row | SMILES | Mtb H37Rv R + CLAV (MIC90) (Mtb H37Rv [1]) [µM] | Mtb H37Rv R (MIC90) (Mtb H37Rv [1]) [µM] | Mtb H37Rv NR + CLAV (MIC90) (Mtb H37Rv [2]) [µM] | Mtb H37Rv NR (MIC90) (Mtb H37Rv [2]) [µM] | E.coli R + CLAV (MIC90) (E. coli) [µM] | P.aeruginosa R + CLAV (MIC90) (P. aeruginosa) [µM] | S.aureus R + CLAV (MIC90) (S. aureus) [µM] | C.albicans R (MIC90) (C. albicans) [µM] | Plasma stability % Remaining, Human [3] [%] | Plasma stability % Remaining, Rat [4] [%] | SGF Stability, % remaining, 1h [5] [%] | SGF Stability, % remaining, 24h [5] [%] | Plasma stability % Remaining, Mouse [6] [%] | Plasma stability % Remaining, Dog [7] [%] | Caco-2 Mean Papp A to B (Caco-2 cells) | Caco-2 Mean Papp B to A (Caco-2 cells) | Caco-2 Mean Recovery % A to B (Caco-2 cells) [%] | Caco-2 Mean Recovery % B to A (Caco-2 cells) [%] | Caco-2 Rank Papp (Caco-2 cells) | Plasma stability % Remaining, Monkey [8] [%] | also measured
1 | CNCc1ccccc1CC(=O)N[C@@H]1C(=O)N2C(C(=O)O)=C(CSc3nnnn3C)CS[C@H]12 [TBBL-0000468] | 5.4 | 16.4 | > 100 | > 100 | > 100 | > 100 | 8.7 | > 100 | 73.6 | 80.8 | 101.42 | 49.27 | 72.0 | 77.2 | < 0.25 10-6 cm/s | < 0.21 10-6 cm/s | < 102.74 | < 109.10 | Low | 101.7 | % bound to plasma, Human (plasma proteins [9]): 21.1%; % bound to plasma, SD Rat (plasma proteins [10]): 39.1%; FaSSIF Stability, % remaining, 6h [11]: 83.23%; FaSSIF Stability, % remaining, 24h [11]: 56.36%; % bound to plasma, Beagle Dog (plasma proteins [12]): 7.3%; % bound to plasma, CD-1 Mouse (plasma proteins [13]): 1.7%; % bound to plasma, Cynomolgus Monkey (plasma proteins [14]): 21.9%
2 | CCCc1nnc(SCC2=C(C(=O)O)N3C(=O)[C@@H](NC(=O)Cc4ccc(C(=N)N)cc4)[C@H]3SC2)s1 [TBBL-0000314] | 0.8 | 14.1 | > 100 | > 100 | > 100 | > 100 | 1.6 | > 100 | 77.2 | 73.3 | 76.41 | 1.85 | 76.2 | 77.0 | < 0.07 10-6 cm/s | < 0.06 10-6 cm/s | < 94.56 | < 107.68 | Low | 103.9 | % bound to plasma, Human (plasma proteins [9]): 65.7%; % bound to plasma, SD Rat (plasma proteins [10]): 84.6%; FaSSIF Stability, % remaining, 6h [11]: 101.85%; FaSSIF Stability, % remaining, 24h [11]: 95.17%; % bound to plasma, Beagle Dog (plasma proteins [12]): 46.7%; % bound to plasma, CD-1 Mouse (plasma proteins [13]): 67.9%; % bound to plasma, Cynomolgus Monkey (plasma proteins [14]): 60.1%
3 | Cn1nnnc1SCC1=C(C(=O)O)N2C(=O)[C@@H](NC(=O)Cc3ccc(C4=NCCCN4)cc3)[C@H]2SC1 [TBBL-0000309] | 0.7 | 29.6 | > 100 | > 100 | 20.6 | > 100 | 1.8 | > 100 | 79.0 | 79.8 | 103.51 | 60.13 | 68.8 | 77.8 | 0.18 10-6 cm/s | 0.38 10-6 cm/s | 99.65 | 104.93 | Low | 104.7 | Caco-2 Efflux Ratio (Caco-2 cells): 2.12; Efflux Transporter Substrate (Caco-2 cells): Likely; % bound to plasma, Human (plasma proteins [9]): 24.6%; % bound to plasma, SD Rat (plasma proteins [10]): 38.2%; FaSSIF Stability, % remaining, 6h [11]: 95.78%; FaSSIF Stability, % remaining, 24h [11]: 77.15%; % bound to plasma, Beagle Dog (plasma proteins [12]): 0.0%; % bound to plasma, CD-1 Mouse (plasma proteins [13]): 4.1%; % bound to plasma, Cynomolgus Monkey (plasma proteins [14]): 29.4%
4 | NCc1ccccc1CC(=O)N[C@@H]1C(=O)N2C(C(=O)O)=C(CSc3nnnn3CCO)CS[C@H]12 [TBBL-0000656] | 2.1 | 5.8 | > 100 | > 100 | 9.8 | > 100 | > 100 | > 100 | 75.1 | 85.1 | 87.12 | 53.93 | 95.0 | 74.7 | < 0.12 10-6 cm/s | 0.27 10-6 cm/s | < 102.47 | 106.09 | Low | 85.7 | Caco-2 Efflux Ratio (Caco-2 cells): > 2.26; Efflux Transporter Substrate (Caco-2 cells): Likely; % bound to plasma, Human (plasma proteins [9]): 23.3%; % bound to plasma, SD Rat (plasma proteins [10]): 50.2%; FaSSIF Stability, % remaining, 6h [11]: 89.32%; FaSSIF Stability, % remaining, 24h [11]: 70.9%; % bound to plasma, Beagle Dog (plasma proteins [12]): 11.2%; % bound to plasma, CD-1 Mouse (plasma proteins [13]): 23.0%; % bound to plasma, Cynomolgus Monkey (plasma proteins [14]): 22.0%
5 | CON=C(C(=O)N[C@@H]1C(=O)N2C(C(=O)O)=C(CSc3cccc[n+]3[O-])CS[C@H]12)c1csc(N)n1 [TBBL-0000539] | 1.9 | 2 | 4.6 | 4.7 | 13.1 | > 100 | 17.3 | > 100 | 83.4 | 98.2 | 104.45 | 90.77 | 92.4 | 79.7 | < 0.10 10-6 cm/s | 0.31 10-6 cm/s | < 96.40 | 105.53 | Low | 120.8 | Caco-2 Efflux Ratio (Caco-2 cells): > 3.03; Efflux Transporter Substrate (Caco-2 cells): Likely; % bound to plasma, Human (plasma proteins [9]): 56.9%; % bound to plasma, SD Rat (plasma proteins [10]): 61.3%; % bound to plasma, Beagle Dog (plasma proteins [12]): 5.2%; % bound to plasma, CD-1 Mouse (plasma proteins [13]): 20.9%; % bound to plasma, Cynomolgus Monkey (plasma proteins [14]): 84.3%
